Molecules are shown by their SMILES.

In general, EC50 refers to the concentration needed to bring the measured effect to its halfway point. Higher therefore signals lower potency in that assay. Usually CC50 stands for the concentration at which the toxic effect on the cells reaches its halfway point. A high value points to lower toxicity to the cells.

Test [1] relates to Hepatitis C virus. As to the kind of experiment: Antiviral activity against HCV by replicon assay. The class given is functional, organism-based, Hepacivirus hominis. On the technique in general: Replicon systems follow genome replication, usually without infectious particles.
Test [2] can be described thus: Cytotoxicity against human U-87 MG cells measured after 3 days by Celltiter-glo assay. It is filed as functional, U-87MG ATCC. To be noted: 72 h, time 3 day.

Take `Nc1ccn([C@H]2[C@H](O)[C@H](O)[C@@H](CO)[S+]2[O-])c(=O)n1` (stereo not given in full): the EC50 in test [1] is more than 100 µM. In test [1], `CC(C)OC(=O)[C@H](C)N[P@](=O)(OC[C@H]1O[C@@H](n2ccc(=O)[nH]c2=O)[C@](C)(F)[C@@H]1O)Oc1ccccc1` [SOFOSBUVIR] showed an EC50 of 0.03 µM. `Nc1ccn([C@@H]2O[C@H](CO)[C@@H](O)[C@@H]2O)c(=O)n1` [CYTARABINE] came in with an EC50 in test [1] of 0.16 µM. The midpoint of cytotoxicity in test [2], the CC50, lay at 0.19 µM. As for `CC(C)OC(=O)[C@@H](C)N[P@](=O)(OC[C@H]1S[C@@H](n2ccc(=O)[nH]c2=O)[C@](C)(F)[C@@H]1O)Oc1ccccc1`, the EC50 in test [1] worked out at 2.99 µM. Still for that read-out and setting: next, `O=c1ccn([C@@H]2O[C@H](CO)[C@@H](O)[C@@H]2O)c(=O)[nH]1` [ARAURIDINE]: more than 100 µM. Still for that read-out and setting: next, `C[C@@]1(F)[C@H](O)[C@@H](CO)S[C@H]1n1ccc(N)nc1=O`: more than 100 µM; `C[C@@]1(F)[C@H](O)[C@@H](CO)S[C@@H]1n1ccc(N)nc1=O`: more than 100 µM. In test [1], `O=c1ccn([C@@H]2O[C@H](CO)[C@@H](O)[C@H]2O)c(=O)[nH]1` [URIDINE] came in with an EC50 of 65.9 µM. On the same count and under the same terms, for `C[C@@]1(F)[C@H](O)[C@@H](CO)S[C@H]1n1ccc(=O)[nH]c1=O` the value was more than 100 µM; for `Nc1ccn([C@@H]2S[C@H](CO)[C@@H](O)C2(F)F)c(=O)n1`, 22.5 µM.

`Nc1ccn([C@@H]2[S+]([O-])[C@H](CO)[C@@H](O)C2(F)F)c(=O)n1` (mixture of isomers): the EC50 in test [1] is 21.8 µM. On the same count and under the same terms, next, `Nc1ccn([C@@H]2O[C@H](CO)[C@@H](O)[C@H]2O)c(=O)n1` [CYTIDINE]: 50 µM; `Nc1ccn([C@H]2[C@@H](O)[C@H](O)[C@@H](CO)[S+]2[O-])c(=O)n1` (mixture of isomers): more than 100 µM. Regarding `C[C@@]1(F)[C@H](O)[C@@H](CO)S[C@@H]1n1ccc(=O)[nH]c1=O`, the EC50 in test [1] was more than 100 µM.

Values taken from ChEMBL document CHEMBL5131483, “Design, chemical synthesis and antiviral evaluation of 2'-deoxy-2'-fluoro-2'-C-methyl-4'-thionucleosides” (Bioorg Med Chem Lett, 2022).
